Measurements published in ChEMBL document CHEMBL4130574, “Discovery of novel 2,4-diarylaminopyrimidine analogues as ALK and ROS1 dual inhibitors to overcome crizotinib-resistant mutants including G1202R” (Eur J Med Chem, 2018).
Activity calls are given as the source filed them. The rule behind the calls is not given here.

Columns and labels:
[1] = test system: KARPAS-299; test: Antiproliferative activity against human KARPAS299 cells harboring NPM-ALK after 72 hrs by MTT assay; assay type: functional, cell-based; conditions: KARPAS-299, 72 h
[2] = test system: HCC78; test: Antiproliferative activity against human HCC78 cells harboring SLC34A2-ROS1 after 72 hrs by MTT assay; assay type: functional, cell-based; conditions: HCC78, 72 h
[3] = target: T1, ALK tyrosine kinase receptor (Homo sapiens, UniProt Q9UM73)
Description: Inhibition of recombinant human N-terminal GST-tagged ALK cytoplasmic domain (1058 to 1620 residues) expressed in baculovirus expression system using peptide substrate after 1 hr by mobility shift assay

[4] = target: T2, Proto-oncogene tyrosine-protein kinase ROS (Homo sapiens, UniProt P08922); test: Inhibition of recombinant human N-terminal GST-tagged ROS1 cytoplasmic domain (1883 to 2347 residues) expressed in baculovirus expression system using peptide substrate after 1 hr by mobility shift assay
[5] = target: Hepatocyte growth factor receptor (Homo sapiens, UniProt P08581); test: Inhibition of recombinant human N-terminal GST-tagged c-MET cytoplasmic domain (956 to 1390 residues) expressed in baculovirus expression system using peptide substrate after 1 hr by mobility shift assay
[6] = target: ALK tyrosine kinase receptor (Homo sapiens, UniProt Q9UM73, L1196M)
[7] = target: ALK tyrosine kinase receptor (Homo sapiens, UniProt Q9UM73, C1156Y)
[8] = target: ALK tyrosine kinase receptor (Homo sapiens, UniProt Q9UM73, T1151INS)
[9] = test system: ALK tyrosine kinase receptor (Homo sapiens), Q9UM73 [L1196M]
[10] = test system: ALK tyrosine kinase receptor (Homo sapiens), Q9UM73 [G1202R]
[11] = test system: KARPAS-299; test: Induction of apoptosis in human KARPAS299 cells harboring NPM-ALK after 24 hrs by acridine orange/ethidium bromide staining based fluorescence microscopic method; assay type: functional, cell-based
[12] = test system: HCC78; test: Induction of apoptosis in human HCC78 cells harboring SLC34A2-ROS1 after 24 hrs by acridine orange/ethidium bromide staining based fluorescence microscopic method; assay type: functional, cell-based
[13] = target: T1, ALK tyrosine kinase receptor; test: Inhibition of ALK phosphorylation in human KARPAS299 cells after 6 hrs by Western blot method; assay type: cell-based
[14] = test system: KARPAS-299; test: Downregulation of ALK protein expression in human KARPAS299 cells after 6 hrs by Western blot method; assay type: functional, cell-based
[15] = test system: HCC78; test: Downregulation of ROS1 protein expression in human HCC78 cells at 100 nM after 6 hrs by Western blot method; assay type: functional, cell-based
[16] = target: T2, Proto-oncogene tyrosine-protein kinase ROS; test: Inhibition of ROS1 phosphorylation in human HCC78 cells at 100 nM after 6 hrs by Western blot method; assay type: cell-based
[17] = target: Epidermal growth factor receptor (Homo sapiens, UniProt P00533)
Description: Inhibition of recombinant human N-terminal GST-tagged EGFR cytoplasmic domain (669 to 1210 residues) expressed in baculovirus expression system using peptide substrate after 1 hr by mobility shift assay

[18] = target: ALK tyrosine kinase receptor (Homo sapiens, UniProt Q9UM73, G1269A)
[19] = target: ALK tyrosine kinase receptor (Homo sapiens, UniProt Q9UM73, G1202R)
[20] = target: ALK tyrosine kinase receptor (Homo sapiens, UniProt Q9UM73, S1206Y)
[21] = test system: NCI-H2228; test: cells; conditions: Homo sapiens, NCI-H2228, 72 h
Description: Antiproliferative activity against human NCI-H2228 cells harboring EML4-ALK after 72 hrs by MTT assay

[22] = test system: A549; test: cells; conditions: Homo sapiens, A549, 72 h
Description: Antiproliferative activity against human A549 cells harboring EGFR after 72 hrs by MTT assay

[23] = test system: NCI-H460; test: cells; conditions: Homo sapiens, NCI-H460, 72 h
Description: Antiproliferative activity against human NCI-H460 cells after 72 hrs by MTT assay

[24] = Selectivity ratio of IC50 for human HCC78 cells harboring SLC34A2-ROS1 to IC50 for human KARPAS299 cells harboring NPM-ALK; assay type: functional
[25] = Selectivity ratio of IC50 for human HCC78 cells harboring SLC34A2-ROS1 to IC50 for human NCI-H2228 cells harboring EML4-ALK; assay type: functional

T2 sequence (P08922 whole entry, the tested form may be a part): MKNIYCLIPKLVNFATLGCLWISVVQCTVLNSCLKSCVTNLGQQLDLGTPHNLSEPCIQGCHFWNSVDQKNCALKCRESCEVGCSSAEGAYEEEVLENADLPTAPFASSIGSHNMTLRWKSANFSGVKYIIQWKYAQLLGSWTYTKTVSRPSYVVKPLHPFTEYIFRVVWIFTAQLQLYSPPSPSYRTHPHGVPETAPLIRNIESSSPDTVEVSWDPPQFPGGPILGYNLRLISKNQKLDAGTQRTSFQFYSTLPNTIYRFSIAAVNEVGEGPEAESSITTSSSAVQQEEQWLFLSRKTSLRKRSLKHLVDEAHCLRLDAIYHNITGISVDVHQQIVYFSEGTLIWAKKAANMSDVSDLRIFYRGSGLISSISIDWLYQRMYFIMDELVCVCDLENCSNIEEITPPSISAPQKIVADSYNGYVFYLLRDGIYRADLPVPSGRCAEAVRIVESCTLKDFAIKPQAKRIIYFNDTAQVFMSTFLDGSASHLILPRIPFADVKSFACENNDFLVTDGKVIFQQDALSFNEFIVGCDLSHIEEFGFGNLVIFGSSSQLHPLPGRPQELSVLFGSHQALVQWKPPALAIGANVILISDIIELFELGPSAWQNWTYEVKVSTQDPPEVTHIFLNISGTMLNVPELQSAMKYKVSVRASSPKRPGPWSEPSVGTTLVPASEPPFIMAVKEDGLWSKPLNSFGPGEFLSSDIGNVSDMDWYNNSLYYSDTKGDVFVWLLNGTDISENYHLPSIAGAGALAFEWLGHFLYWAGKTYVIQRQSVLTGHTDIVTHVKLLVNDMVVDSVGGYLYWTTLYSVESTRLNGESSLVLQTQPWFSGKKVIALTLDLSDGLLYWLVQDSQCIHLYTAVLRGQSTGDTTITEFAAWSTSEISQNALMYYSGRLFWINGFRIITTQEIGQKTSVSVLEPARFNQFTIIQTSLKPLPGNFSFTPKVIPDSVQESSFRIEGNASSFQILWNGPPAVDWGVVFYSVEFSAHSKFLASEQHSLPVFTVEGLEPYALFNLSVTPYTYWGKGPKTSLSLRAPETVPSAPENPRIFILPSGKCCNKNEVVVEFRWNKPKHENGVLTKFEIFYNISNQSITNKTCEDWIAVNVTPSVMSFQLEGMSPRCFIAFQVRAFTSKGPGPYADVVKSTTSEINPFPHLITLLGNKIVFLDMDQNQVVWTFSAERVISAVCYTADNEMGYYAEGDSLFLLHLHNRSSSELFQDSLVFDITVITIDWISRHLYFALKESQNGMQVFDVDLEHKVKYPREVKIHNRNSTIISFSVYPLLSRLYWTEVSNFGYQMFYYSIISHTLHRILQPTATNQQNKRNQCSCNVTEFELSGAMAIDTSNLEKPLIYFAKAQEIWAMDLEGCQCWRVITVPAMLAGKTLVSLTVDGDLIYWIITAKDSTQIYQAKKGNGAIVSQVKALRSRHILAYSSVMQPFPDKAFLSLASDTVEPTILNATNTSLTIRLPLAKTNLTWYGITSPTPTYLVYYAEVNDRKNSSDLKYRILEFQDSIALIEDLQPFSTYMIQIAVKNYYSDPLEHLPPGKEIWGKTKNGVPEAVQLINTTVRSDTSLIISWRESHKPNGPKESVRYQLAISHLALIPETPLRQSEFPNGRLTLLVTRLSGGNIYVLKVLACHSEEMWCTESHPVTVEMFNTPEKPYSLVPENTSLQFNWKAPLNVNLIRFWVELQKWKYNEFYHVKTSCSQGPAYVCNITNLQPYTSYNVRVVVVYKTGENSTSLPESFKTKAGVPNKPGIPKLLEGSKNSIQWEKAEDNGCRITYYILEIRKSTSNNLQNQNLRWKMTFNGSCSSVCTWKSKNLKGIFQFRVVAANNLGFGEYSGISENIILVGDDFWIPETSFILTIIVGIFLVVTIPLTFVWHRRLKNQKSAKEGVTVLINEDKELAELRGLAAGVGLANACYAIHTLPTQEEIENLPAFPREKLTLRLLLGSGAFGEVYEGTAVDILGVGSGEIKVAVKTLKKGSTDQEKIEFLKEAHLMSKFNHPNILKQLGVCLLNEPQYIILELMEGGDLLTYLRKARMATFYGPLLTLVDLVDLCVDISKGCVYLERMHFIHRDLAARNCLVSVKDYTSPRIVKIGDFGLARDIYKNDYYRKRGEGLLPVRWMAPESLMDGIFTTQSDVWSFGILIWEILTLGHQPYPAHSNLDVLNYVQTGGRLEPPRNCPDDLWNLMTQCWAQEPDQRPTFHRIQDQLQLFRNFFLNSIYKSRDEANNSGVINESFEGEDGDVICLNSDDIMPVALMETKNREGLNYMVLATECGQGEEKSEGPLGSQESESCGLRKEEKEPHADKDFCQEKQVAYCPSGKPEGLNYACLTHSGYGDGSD
Chain of Epidermal growth factor receptor (P00533 whole entry): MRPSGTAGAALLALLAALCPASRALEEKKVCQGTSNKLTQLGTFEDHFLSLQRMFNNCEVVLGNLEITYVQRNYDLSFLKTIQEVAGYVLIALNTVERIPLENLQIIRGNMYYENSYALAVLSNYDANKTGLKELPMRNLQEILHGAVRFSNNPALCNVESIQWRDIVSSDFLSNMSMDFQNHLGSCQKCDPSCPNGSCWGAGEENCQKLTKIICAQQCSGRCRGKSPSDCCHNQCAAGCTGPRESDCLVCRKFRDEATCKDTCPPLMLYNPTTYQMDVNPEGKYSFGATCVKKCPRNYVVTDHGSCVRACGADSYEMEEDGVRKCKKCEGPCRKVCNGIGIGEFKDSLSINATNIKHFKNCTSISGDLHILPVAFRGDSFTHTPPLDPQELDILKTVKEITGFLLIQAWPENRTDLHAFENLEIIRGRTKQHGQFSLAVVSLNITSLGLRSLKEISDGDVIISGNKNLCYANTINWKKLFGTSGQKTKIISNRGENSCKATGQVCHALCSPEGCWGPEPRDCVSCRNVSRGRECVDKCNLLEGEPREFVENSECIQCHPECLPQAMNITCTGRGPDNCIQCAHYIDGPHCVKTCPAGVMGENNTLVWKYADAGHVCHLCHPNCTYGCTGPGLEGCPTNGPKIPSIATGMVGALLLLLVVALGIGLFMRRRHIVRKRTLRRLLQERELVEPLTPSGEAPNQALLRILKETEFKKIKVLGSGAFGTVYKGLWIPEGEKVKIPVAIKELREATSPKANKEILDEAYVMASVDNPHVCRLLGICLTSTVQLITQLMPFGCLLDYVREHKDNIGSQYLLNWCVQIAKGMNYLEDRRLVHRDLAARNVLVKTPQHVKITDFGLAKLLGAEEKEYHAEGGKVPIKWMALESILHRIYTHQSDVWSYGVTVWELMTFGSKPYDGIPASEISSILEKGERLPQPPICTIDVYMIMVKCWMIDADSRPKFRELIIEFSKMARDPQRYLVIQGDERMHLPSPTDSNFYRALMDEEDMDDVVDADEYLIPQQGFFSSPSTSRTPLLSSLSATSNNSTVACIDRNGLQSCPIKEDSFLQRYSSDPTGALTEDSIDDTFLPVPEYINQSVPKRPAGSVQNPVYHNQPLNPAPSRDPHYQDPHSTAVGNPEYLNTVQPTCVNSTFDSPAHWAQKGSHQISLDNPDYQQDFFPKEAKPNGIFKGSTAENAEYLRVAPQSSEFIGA
Chain of Hepatocyte growth factor receptor (P08581 whole entry, the tested form may be a part): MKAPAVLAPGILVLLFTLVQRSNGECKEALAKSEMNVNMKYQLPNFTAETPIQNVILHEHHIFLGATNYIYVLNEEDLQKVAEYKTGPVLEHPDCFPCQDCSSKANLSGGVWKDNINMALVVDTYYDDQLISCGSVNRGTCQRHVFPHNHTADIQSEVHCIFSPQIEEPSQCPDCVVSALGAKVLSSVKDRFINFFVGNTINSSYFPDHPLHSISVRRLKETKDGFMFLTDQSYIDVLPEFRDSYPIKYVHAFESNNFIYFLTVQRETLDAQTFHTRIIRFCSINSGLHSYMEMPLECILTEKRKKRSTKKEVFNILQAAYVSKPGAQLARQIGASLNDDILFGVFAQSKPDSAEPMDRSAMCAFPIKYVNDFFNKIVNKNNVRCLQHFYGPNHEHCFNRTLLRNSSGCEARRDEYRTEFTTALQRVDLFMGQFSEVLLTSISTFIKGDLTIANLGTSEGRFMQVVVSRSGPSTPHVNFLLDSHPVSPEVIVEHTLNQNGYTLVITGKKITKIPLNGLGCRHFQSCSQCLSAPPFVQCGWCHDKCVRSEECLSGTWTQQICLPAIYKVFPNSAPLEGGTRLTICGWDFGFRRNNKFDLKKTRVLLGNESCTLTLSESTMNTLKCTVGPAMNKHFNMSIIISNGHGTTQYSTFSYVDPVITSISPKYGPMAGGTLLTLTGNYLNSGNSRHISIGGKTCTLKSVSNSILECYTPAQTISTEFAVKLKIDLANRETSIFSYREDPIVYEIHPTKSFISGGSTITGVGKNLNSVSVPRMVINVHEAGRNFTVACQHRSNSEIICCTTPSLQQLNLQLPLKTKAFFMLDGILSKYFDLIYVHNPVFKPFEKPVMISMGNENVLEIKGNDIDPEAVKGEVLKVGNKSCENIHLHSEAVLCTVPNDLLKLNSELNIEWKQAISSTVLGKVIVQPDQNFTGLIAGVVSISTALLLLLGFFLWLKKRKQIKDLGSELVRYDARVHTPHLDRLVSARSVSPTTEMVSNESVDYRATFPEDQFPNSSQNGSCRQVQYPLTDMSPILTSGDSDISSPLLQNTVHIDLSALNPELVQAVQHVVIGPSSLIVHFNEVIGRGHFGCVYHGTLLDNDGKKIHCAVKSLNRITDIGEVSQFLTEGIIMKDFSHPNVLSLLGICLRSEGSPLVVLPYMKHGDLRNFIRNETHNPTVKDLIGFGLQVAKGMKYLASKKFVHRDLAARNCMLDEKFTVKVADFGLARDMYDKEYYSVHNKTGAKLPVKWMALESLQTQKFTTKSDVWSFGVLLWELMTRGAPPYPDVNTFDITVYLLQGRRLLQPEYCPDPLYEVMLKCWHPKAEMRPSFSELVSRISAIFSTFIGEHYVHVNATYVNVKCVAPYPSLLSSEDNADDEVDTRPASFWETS

Row | Compound | IC50 [1] | IC50 [2] | IC50 [3] | IC50 [4] | IC50 [5] | IC50 [17] | IC50 [21] | IC50 [22] | IC50 [23] | further results
1 | COc1cc(-n2cc(CN3CCN(C)CC3)nn2)ccc1Nc1ncc(Cl)c(Nc2ccccc2S(=O)(=O)C(C)C)n1 | 21 nM | 40 nM | 1.4 nM | 1.1 nM | > 1000 nM | > 1000 nM | 95 nM | > 1000 nM | > 1000 nM | IC50 [6]: 3.1 nM; IC50 [7]: 3 nM; IC50 [8]: 2.3 nM; Ratio IC50 [9]: 11; Ratio IC50 [10]: 10; Activity [11]: Dose-dependent effect; Activity [12]: Dose-dependent effect; inhibition [13]: Dose-dependent effect; Activity [14]: Dose-dependent effect; Activity [15]: Active; inhibition [16]: Active; IC50 [18]: 2.8 nM; IC50 [19]: 8.7 nM; IC50 [20]: 4.6 nM
2 | COc1cc(-c2nc(CN3CCN(C)CC3)cs2)ccc1Nc1ncc(Cl)c(Nc2ccccc2S(=O)(=O)C(C)C)n1 | 22 nM | 93 nM | 2.3 nM | 9.8 nM | 820 nM | > 1000 nM | 98 nM | > 1000 nM | 870 nM | Ratio IC50 [24]: 2.3; Ratio IC50 [25]: 2.3
